Measurements: US11505533B2, “Metabolically stable N-acylaminooxadiazoles useful as antibacterial agents” (MICROBIOTIX, INC., priority 2017, dated 2022)
Converted amounts (≈) assume the structure as drawn.

Tested on: E. coli TolC(−)
Test: TolC(−) MIC (NB)
Type: cell-based
Conditions: Escherichia coli, read-out: TolC(−) MIC (μM)(NB)

## CC(=O)N1CCN(C(=O)Nc2nnc(-c3ccc(F)cc3)o2)CC1 [compound 4198]
  MIC: ≥ 100 µM

## O=C(Nc1nnc(-c2ccc(F)cc2)o1)N1CCN2CCCCC2C1 (stereo not drawn) [compound 4199]
  MIC: ≥ 100 µM

## O=C(Nc1nnc(-c2ccc(F)cc2)o1)N1CCCC2CCCCC21 (stereo not drawn) [compound 4200]
  MIC: 50 µM (≈ 17.2 µg/mL)

## O=C(Nc1nnc(-c2ccc(F)cc2)o1)N1CCN(C(=O)c2ccco2)CC1 [compound 4201]
  MIC: 28.1 µM (≈ 10.8 µg/mL)

## O=C(Nc1nnc(-c2ccc(F)cc2)o1)c1ccc(Oc2ccccc2)cn1 [compound 4258]
  MIC: 35.4 µM (≈ 13.3 µg/mL)

## CC(C)(C)OC(=O)N1CCC(Oc2ccc(C(=O)Nc3nnc(-c4ccc(F)cc4)o3)cc2)CC1 [compound 4289]
  MIC: 3.51 µM (≈ 1.69 µg/mL)

## Cc1cncc(Oc2ccc(C(=O)Nc3nnc(-c4ccc(F)cc4)o3)cc2)n1 [compound 4290]
  MIC: 11.1 µM (≈ 4.36 µg/mL)

## O=C(Nc1nnc(-c2ccc(F)cc2)o1)c1cnc(Oc2ccccc2)nc1 [compound 4314]
  MIC: 6.25 µM (≈ 2.36 µg/mL)

## COc1cc2c(cc1OC)CN(C(=O)Nc1nnc(-c3ccc(F)cc3)o1)CC2 [compound 4333]
  MIC: 12.5 µM (≈ 4.98 µg/mL)

## O=C(Nc1nnc(-c2ccc(F)cc2)o1)N1CCCC1 [compound 4346]
  MIC: 100 µM (≈ 27.6 µg/mL)

## CN1CCCN(C(=O)Nc2nnc(-c3ccc(F)cc3)o2)CC1 [compound 4349]
  MIC: ≥ 100 µM

## O=C1CN(C(=O)Nc2nnc(-c3ccc(F)cc3)o2)CCN1 [compound 4350]
  MIC: ≥ 100 µM

## CN1CCN(C(=O)Nc2nnc(-c3ccc(F)cc3)o2)CC1=O [compound 4351]
  MIC: ≥ 100 µM

## O=C(Nc1nnc(-c2ccc(F)cc2)o1)N1CC2CC(C1)O2 [compound 4380]
  MIC: ≥ 100 µM

## O=C(Nc1nnc(-c2ccc(F)cc2)o1)N1CC2CCC(C1)O2 [compound 4381]
  MIC: 100 µM (≈ 31.8 µg/mL)

## COCCN1[C@H](C)CN(C(=O)Nc2nnc(-c3ccc(F)cc3)o2)C[C@@H]1C [compound 4406]
  MIC: 50 µM (≈ 18.9 µg/mL)

## Cc1nc2c(s1)CN(C(=O)Nc1nnc(-c3ccc(F)cc3)o1)C2 [compound 4464]
  MIC: ≥ 100 µM

## Cc1nnc(NC(=O)c2ccc(Oc3ccccc3)nc2)o1 [compound 4468]
  MIC: ≥ 100 µM

## O=C(Nc1nnc(C2CCC2)o1)c1ccc(Oc2ccccc2)nc1 [compound 4469]
  MIC: 12.5 µM (≈ 4.2 µg/mL)

## O=C(Nc1nnc(-c2ccc(F)cc2)o1)N1Cc2ncsc2C1 [compound 4497]
  MIC: ≥ 100 µM

## CC1CCN(C(=O)Nc2nnc(-c3ccc(F)cc3)o2)CC1 [compound 4684]
  MIC: 15.8 µM (≈ 4.79 µg/mL)

## CC1(C)CCN(C(=O)Nc2nnc(-c3ccc(F)cc3)o2)CC1 [compound 4685]
  MIC: 12.5 µM (≈ 3.98 µg/mL)

## O=C(Nc1nnc(-c2ccc(F)cc2)o1)N1CCC(F)(F)CC1 [compound 4686]
  MIC: 12.5 µM (≈ 4.08 µg/mL)

## O=C(Nc1nnc(-c2ccc(F)cc2)o1)N1CCOCC1 [compound 4697]
  MIC: 100 µM (≈ 29.2 µg/mL)

## O=C(Nc1nnc(-c2ccc(F)cc2)o1)N1CCC2CCCCC2C1 (stereo not drawn) [compound 4698]
  MIC: 8.84 µM (≈ 3.04 µg/mL)

## O=C(Nc1nnc(-c2ccc(F)cc2)o1)N1CCCCC1 [compound 4699]
  MIC: 25 µM (≈ 7.26 µg/mL)

## O=C(Nc1nnc(-c2ccc(F)cc2)o1)N1CCCCCC1 [compound 4700]
  MIC: 15.8 µM (≈ 4.79 µg/mL)

## COC(=O)C1CCN(C(=O)Nc2nnc(-c3ccc(F)cc3)o2)CC1 [compound 4701]
  MIC: 50 µM (≈ 17.4 µg/mL)

## O=C(Nc1nnc(-c2ccc(F)cc2)o1)N1CCC(N2CCCCC2)CC1 [compound 4702]
  MIC: > 100 µM

## O=C(Nc1nnc(-c2ccc(F)cc2)o1)N1CCC(O)CC1 [compound 4734]
  MIC: 100 µM (≈ 30.6 µg/mL)

## O=C(Nc1nnc(-c2ccc(F)cc2)o1)N1CCC(C(F)(F)F)C1 (stereo not drawn) [compound 4735]
  MIC: 22.3 µM (≈ 7.67 µg/mL)

## CC1=C(C)CN(C(=O)Nc2nnc(-c3ccc(F)cc3)o2)CC1 [compound 4738]
  MIC: 7 µM (≈ 2.21 µg/mL)

## O=C(Nc1nnc(-c2ccc(F)cc2)o1)N1CCC2(CC1)COC2 [compound 4739]
  MIC: 100 µM (≈ 33.2 µg/mL)

## O=C(Nc1nnc(-c2ccc(F)cc2)o1)N1CCC(C2COC2)CC1 [compound 4740]
  MIC: 100 µM (≈ 34.6 µg/mL)

## O=C(Nc1nnc(-c2ccc(F)cc2)o1)N1CCC(Nc2ccccc2)CC1 [compound 4741]
  MIC: 11.1 µM (≈ 4.23 µg/mL)

## CC1CCCN(C(=O)Nc2nnc(-c3ccc(F)cc3)o2)C1 (stereo not drawn) [compound 4767]
  MIC: 11.1 µM (≈ 3.38 µg/mL)
